According to patent US20240279215A1 (Cytokinetics, Incorporated, priority 2022, published 2024):

Biological target: human NAMPT (Homo sapiens (Human), UniProt P43490)
Assay: NMN fluorescence biochemical assay (human recombinant NAMPT enzyme assay)
Method in brief: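 NMN formed was detected by fluorescence (Ex/Em 355/460 nm) after acetophenone, KOH and formic acid derivatization. The cell-free reaction ran 60 min at ambient temperature with 6 nM human NAMPT, 150 μM nicotinamide, 20 μM PRPP, 2.5 mM ATP, pH 7.2 HEPES, and compound dose responses.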

human NAMPT, sequence (P43490 whole entry): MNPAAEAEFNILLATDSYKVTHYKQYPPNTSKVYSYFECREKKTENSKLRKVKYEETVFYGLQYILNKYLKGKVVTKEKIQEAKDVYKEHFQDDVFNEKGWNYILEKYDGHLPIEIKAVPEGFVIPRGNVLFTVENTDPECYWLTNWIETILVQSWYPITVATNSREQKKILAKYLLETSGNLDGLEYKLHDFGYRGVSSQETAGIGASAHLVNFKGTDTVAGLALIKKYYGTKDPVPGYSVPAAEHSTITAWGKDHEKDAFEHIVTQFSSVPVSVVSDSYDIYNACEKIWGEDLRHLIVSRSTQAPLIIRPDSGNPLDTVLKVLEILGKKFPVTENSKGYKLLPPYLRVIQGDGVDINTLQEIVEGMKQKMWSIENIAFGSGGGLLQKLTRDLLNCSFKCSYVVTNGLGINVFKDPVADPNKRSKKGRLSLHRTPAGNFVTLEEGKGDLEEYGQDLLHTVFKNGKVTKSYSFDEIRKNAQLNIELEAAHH

Row | AC1.4 Human | EC50 | SMILES
1 | 2.58 µM | 20.3 µM | COC(=O)N1CCC[C@@H](c2ccc(NC(=O)OCc3cnco3)cc2)C1 [Compound 383, methyl (S)-3-(4-(((oxazol-5-ylmethoxy)carbonyl)amino)phenyl)piperidine-1-carboxylate]
2 | 0.24 µM | 23.3 µM | CN(C)S(=O)(=O)N1CCC[C@@H](c2ccc(NC(=O)OCc3cnco3)cc2)C1 [Compound 384, oxazol-5-ylmethyl (S)-(4-(1-(N,N-dimethylsulfamoyl)piperidin-3-yl)phenyl)carbamate]
3 | 0.14 µM | 14.1 µM | CCS(=O)(=O)N1CC2(CC(Cc3ccc(NC(=O)OCc4cnco4)cc3F)C2)C1 [Compound 386, oxazol-5-ylmethyl (4-((2-(ethylsulfonyl)-2-azaspiro[3.3]heptan-6-yl)methyl)-3-fluorophenyl)carbamate]
4 | 0.08 µM | 2.76 µM | CN(C)S(=O)(=O)N1CC2(CC(c3ccc(NC(=O)OCc4cnco4)cc3F)C2)C1 [Compound 387, oxazol-5-ylmethyl (4-(2-(N,N-dimethylsulfamoyl)-2-azaspiro[3.3]heptan-6-yl)-3-fluorophenyl)carbamate]
5 | 0.13 µM | 10.2 µM | CS(=O)(=O)N1CC2(CC(c3ccc(NC(=O)OCc4cnco4)cc3F)C2)C1 [Compound 388, oxazol-5-ylmethyl (3-fluoro-4-(2-(methylsulfonyl)-2-azaspiro[3.3]heptan-6-yl)phenyl)carbamate]
6 | 0.11 µM | 6.78 µM | COC(=O)N1CC2(CC(Cc3ccc(NC(=O)OCc4cnco4)cc3F)C2)C1 [Compound 396, methyl 6-(2-fluoro-4-(((oxazol-5-ylmethoxy)carbonyl)amino)benzyl)-2-azaspiro[3.3]heptane-2-carboxylate]
7 | 0.98 µM | 42.6 µM | O=C(Nc1ccc(CC2CC3(C2)CN(C2COC2)C3)c(F)c1)OCc1cnco1 [Compound 397, oxazol-5-ylmethyl (3-fluoro-4-((2-(oxetan-3-yl)-2-azaspiro[3.3]heptan-6-yl)methyl)phenyl)carbamate]
8 | 0.08 µM | 3.29 µM | CN(C)C(=O)N1CC2(CC(Cc3ccc(NC(=O)OCc4cnco4)cc3F)C2)C1 [Compound 398, oxazol-5-ylmethyl (4-((2-(dimethylcarbamoyl)-2-azaspiro[3.3]heptan-6-yl)methyl)-3-fluorophenyl)carbamate]
9 | 0.04 µM | 3.37 µM | CC(=O)N1CC2(CC(c3ccc(NC(=O)OCc4cnco4)cc3F)C2)C1 [Compound 401, oxazol-5-ylmethyl (4-(2-acetyl-2-azaspiro[3.3]heptan-6-yl)-3-fluorophenyl)carbamate]
10 | 0.07 µM | 12.4 µM | CCC(=O)N1CC2(CC(Cc3ccc(NC(=O)OCc4cnco4)cc3F)C2)C1 [Compound 402, oxazol-5-ylmethyl (3-fluoro-4-((2-propionyl-2-azaspiro[3.3]heptan-6-yl)methyl)phenyl)carbamate]
11 | 0.15 µM | 7.47 µM | CC(C)C(=O)N1CC2(CC(Cc3ccc(NC(=O)OCc4cnco4)cc3F)C2)C1 [Compound 403, oxazol-5-ylmethyl (3-fluoro-4-((2-isobutyryl-2-azaspiro[3.3]heptan-6-yl)methyl)phenyl)carbamate]
12 | 0.10 µM | 14.3 µM | CS(=O)(=O)N1CC2(CC(Cc3ccc(NC(=O)OCc4cnco4)cc3F)C2)C1 [Compound 404, oxazol-5-ylmethyl (3-fluoro-4-((2-(methylsulfonyl)-2-azaspiro[3.3]heptan-6-yl)methyl)phenyl)carbamate]
13 | 0.04 µM | 19 µM | CN(C)C(=O)N1CCC(c2ccc(NC(=O)OCc3cnco3)cc2F)CC1 [Compound 411, oxazol-5-ylmethyl (4-(1-(dimethylcarbamoyl)piperidin-4-yl)-3-fluorophenyl)carbamate]
14 | 0.05 µM | 48.3 µM | CCC(=O)N1CCC(c2ccc(NC(=O)OCc3cnco3)cc2F)CC1 [Compound 412, oxazol-5-ylmethyl (3-fluoro-4-(1-propionylpiperidin-4-yl)phenyl)carbamate]
15 | 0.10 µM | 25.6 µM | CC(=O)N1CCC(c2ccc(NC(=O)OCc3cnco3)cc2F)CC1 [Compound 413, oxazol-5-ylmethyl (4-(1-acetylpiperidin-4-yl)-3-fluorophenyl)carbamate]
16 | 0.03 µM | 26.2 µM | CC(C)C(=O)N1CCC(c2ccc(NC(=O)OCc3cnco3)cc2F)CC1 [Compound 414, oxazol-5-ylmethyl (3-fluoro-4-(1-isobutyrylpiperidin-4-yl)phenyl)carbamate]
17 | 0.18 µM | 11.9 µM | CS(=O)(=O)N1CCC(c2ccc(NC(=O)OCc3cnco3)cc2F)CC1 [Compound 415, oxazol-5-ylmethyl (3-fluoro-4-(1-(methylsulfonyl)piperidin-4-yl)phenyl)carbamate]
18 | 0.07 µM | 2.58 µM | CN(C)S(=O)(=O)N1CCC(c2ccc(NC(=O)OCc3cnco3)cc2F)CC1 [Compound 416, oxazol-5-ylmethyl (4-(1-(N,N-dimethylsulfamoyl)piperidin-4-yl)-3-fluorophenyl)carbamate]
19 | 0.18 µM | 27 µM | COC(=O)N1CCC(c2ccc(NC(=O)OCc3cnco3)cc2F)CC1 [Compound 417, methyl 4-(2-fluoro-4-(((oxazol-5-ylmethoxy)carbonyl)amino)phenyl)piperidine-1-carboxylate]
20 | 0.18 µM | 5.97 µM | CCS(=O)(=O)N1CCC(Cc2ccc(NC(=O)OCc3cnco3)cc2)CC12CC2 (centres unmarked) [Compound 418, oxazol-5-ylmethyl (4-((4-(ethylsulfonyl)-4-azaspiro[2.5]octan-7-yl)methyl)phenyl)carbamate]
21 | 0.32 µM | 12.7 µM | CS(=O)(=O)N1CCC(Cc2ccc(NC(=O)OCc3cnco3)cc2)CC12CC2 (centres unmarked) [Compound 419, oxazol-5-ylmethyl (4-((4-(methylsulfonyl)-4-azaspiro[2.5]octan-7-yl)methyl)phenyl)carbamate]

Row | SMILES | AC1.4 Human | EC50
22 | CN(C)C(=O)N1CCC[C@@H](c2ccc(NC(=O)OCc3cnco3)cc2)C1 [Compound 385, oxazol-5-ylmethyl (S)-(4-(1-(dimethylcarbamoyl)piperidin-3-yl)phenyl)carbamate] | 1.69 µM | 20.8 µM
23 | O=C(Nc1ccc(CC2CC3CCC(C2)N3C(=O)N2CCOCC2)cc1)OCc1cnco1 (centres unmarked) [Compound 389, oxazol-5-ylmethyl (4-((8-(morpholine-4-carbonyl)-8-azabicyclo[3.2.1]octan-3-yl)methyl)phenyl)carbamate] | 0.09 µM | 3.75 µM
24 | O=C(Nc1ccc(CC2CC3CCC(C2)N3C(=O)N2CCCCC2)cc1)OCc1cnco1 (centres unmarked) [Compound 390, oxazol-5-ylmethyl (4-((8-(piperidine-1-carbonyl)-8-azabicyclo[3.2.1]octan-3-yl)methyl)phenyl)carbamate] | 0.13 µM | 1.8 µM
25 | O=C(Nc1ccc(CC2CC3CCC(C2)N3C(=O)N2CCCC2)cc1)OCc1cnco1 (centres unmarked) [Compound 391, oxazol-5-ylmethyl (4-((8-(pyrrolidine-1-carbonyl)-8-azabicyclo[3.2.1]octan-3-yl)methyl)phenyl)carbamate] | 0.05 µM | 5.5 µM
26 | O=C(Nc1ccc(CC2CC3CCC(C2)N3C(=O)N2CCC2)cc1)OCc1cnco1 (centres unmarked) [Compound 392, oxazol-5-ylmethyl (4-((8-(azetidine-1-carbonyl)-8-azabicyclo[3.2.1]octan-3-yl)methyl)phenyl)carbamate] | 0.13 µM | 6.9 µM
27 | O=C(Nc1ccc(CC2CC3CCC(C2)N3S(=O)(=O)N2CCC2)cc1)OCc1cnco1 (centres unmarked) [Compound 393, oxazol-5-ylmethyl (4-((8-(azetidin-1-ylsulfonyl)-8-azabicyclo[3.2.1]octan-3-yl)methyl)phenyl)carbamate] | 0.13 µM | 3.84 µM
28 | O=C(Nc1ccc(CC2CC3CCC(C2)N3S(=O)(=O)C2CCC2)cc1)OCc1cnco1 (centres unmarked) [Compound 394, oxazol-5-ylmethyl (4-((8-(cyclobutylsulfonyl)-8-azabicyclo[3.2.1]octan-3-yl)methyl)phenyl)carbamate] | 0.19 µM | 4.62 µM
29 | CN(C)S(=O)(=O)N1C2CCC1CC(Cc1ccc(NC(=O)OCc3cnco3)cc1)C2 (centres unmarked) [Compound 405, oxazol-5-ylmethyl (4-((8-(N,N-dimethylsulfamoyl)-8-azabicyclo[3.2.1]octan-3-yl)methyl)phenyl)carbamate] | 0.11 µM | 3.42 µM
30 | CS(=O)(=O)N1C2CCC1CC(Cc1ccc(NC(=O)OCc3cnco3)cc1)C2 (centres unmarked) [Compound 406, oxazol-5-ylmethyl (4-((8-(methylsulfonyl)-8-azabicyclo[3.2.1]octan-3-yl)methyl)phenyl)carbamate] | 0.13 µM | 6.01 µM
31 | COC(=O)N1C2CCC1CC(Cc1ccc(NC(=O)OCc3cnco3)cc1)C2 (centres unmarked) [Compound 407, methyl 3-(4-(((oxazol-5-ylmethoxy)carbonyl)amino)benzyl)-8-azabicyclo[3.2.1]octane-8-carboxylate] | 0.26 µM | 8.55 µM
32 | CN(C)C(=O)N1C2CCC1CC(Cc1ccc(NC(=O)OCc3cnco3)cc1)C2 (centres unmarked) [Compound 408, oxazol-5-ylmethyl (4-((8-(dimethylcarbamoyl)-8-azabicyclo[3.2.1]octan-3-yl)methyl)phenyl)carbamate] | 0.05 µM | 3.44 µM
33 | CC(C)C(=O)N1C2CCC1CC(Cc1ccc(NC(=O)OCc3cnco3)cc1)C2 (centres unmarked) [Compound 409, oxazol-5-ylmethyl (4-((8-isobutyryl-8-azabicyclo[3.2.1]octan-3-yl)methyl)phenyl)carbamate] | 0.20 µM | 26.8 µM
34 | CC(=O)N1C2CCC1CC(Cc1ccc(NC(=O)OCc3cnco3)cc1)C2 (centres unmarked) [Compound 410, oxazol-5-ylmethyl (4-((8-acetyl-8-azabicyclo[3.2.1]octan-3-yl)methyl)phenyl)carbamate] | 0.13 µM | 4.19 µM
